Reference: patent US9662357B2, “Bacterium and extracts of said bacterium and the use of same in dermatology” (PIERRE FABRE DERMO-COSMETIQUE, priority 2010, dated 2017)

What was measured:
Assay type in all cases: cell-based
[1] = tested on: MIP-3α; experiment: PCR array, NHEK atopic dermatitis phenotype: MIP-3α; conditions: Homo sapiens, read-out: percentage of inhibition MIP-3α
Procedure: (§1) The study was carried out on normal human epidermal keratinocytes (NHEK, K-SFM culture medium) in the context of the induction of an atopic dermatitis phenotype.

[2] = tested on: RANTES; experiment: PCR array, NHEK atopic dermatitis phenotype: RANTES; conditions: Homo sapiens, read-out: percentage of inhibition RANTES
Procedure: as §1

[3] = tested on: IL-18; experiment: PCR array, NHEK atopic dermatitis phenotype: IL-18; conditions: Homo sapiens, read-out: percentage of inhibition IL-18
Procedure: as §1

[4] = tested on: MDC; experiment: PCR array, NHEK atopic dermatitis phenotype: MDC; conditions: Homo sapiens, read-out: percentage of inhibition MDC
Procedure: as §1

[5] = tested on: IL-1α; experiment: PCR array, NHEK atopic dermatitis phenotype: IL-1α; conditions: Homo sapiens, read-out: percentage of inhibition IL-1α
Procedure: as §1

[6] = tested on: IL-8; experiment: PCR array, NHEK atopic dermatitis phenotype: IL-8; conditions: Homo sapiens, read-out: percentage of inhibition IL-8
Procedure: as §1

[7] = tested on: TSLP; experiment: PCR array, NHEK atopic dermatitis phenotype: TSLP; conditions: Homo sapiens, read-out: percentage of inhibition TSLP
Procedure: as §1

[8] = tested on: MlP-1α; experiment: PCR array, NHEK atopic dermatitis phenotype: MlP-1α; conditions: Homo sapiens, read-out: percentage of inhibition MlP-1α
Procedure: as §1

[9] = tested on: Skinkine; experiment: PCR array, NHEK atopic dermatitis phenotype: Skinkine; conditions: Homo sapiens, read-out: percentage of inhibition Skinkine
Procedure: as §1

[10] = tested on: RARRES3; experiment: PCR array, NHEK atopic dermatitis phenotype: RARRES3; conditions: Homo sapiens, read-out: percentage of inhibition RARRES3
Procedure: as §1

[11] = tested on: IL-4-R; experiment: PCR array, NHEK atopic dermatitis phenotype: IL-4-R; conditions: Homo sapiens, read-out: percentage of inhibition IL-4-R
Procedure: as §1

[12] = tested on: IFN-β1; experiment: PCR array, NHEK atopic dermatitis phenotype: IFN-β1; conditions: Homo sapiens, read-out: percentage of inhibition IFN-β1
Procedure: as §1

[13] = tested on: Bacterium LMB64; experiment: Antibiotic sensitivity of bacterium LMB64, zone of inhibition; conditions: disc load given with each antibiotic; for Zone of inhibition diameter (mm) LB ½: LB ½ dilution medium; for Zone of inhibition diameter (mm) LB ⅕: LB ⅕ dilution medium; for Zone of inhibition diameter (mm) R3: R3 medium

| Compound | Zone of inhibition diameter (mm) LB ½ [13] | Zone of inhibition diameter (mm) LB ⅕ [13] | Zone of inhibition diameter (mm) R3 [13] | other results |
| --- | --- | --- | --- | --- |
| C[C@@H]1C[C@H]2[C@@H]3CCC4=CC(=O)C=C[C@]4(C)[C@@]3(F)[C@@H](O)C[C@]2(C)[C@@]1(O)C(=O)CO [Dexamethasone] | – | – | – | inhibition at 2 µM [1]: 40%; inhibition at 2 µM [2]: 12%; inhibition at 2 µM [3]: 44%; inhibition at 2 µM [4]: 45%; inhibition at 2 µM [5]: 54%; inhibition at 2 µM [6]: 75%; inhibition at 2 µM [7]: 91%; inhibition at 2 µM [8]: 76%; inhibition at 2 µM [9]: 59%; inhibition at 2 µM [10]: 28%; inhibition at 2 µM [11]: 75%; inhibition at 2 µM [12]: 49% |
| Polymyxin B | 15 mm | 13 mm | 11 mm | – |
| [H]/N=C(/N)N[C@H]1[C@H](O)[C@@H](O)[C@H](O[C@@H]2O[C@@H](C)[C@](O)(C=O)[C@H]2O[C@@H]2O[C@@H](CO)[C@H](O)[C@@H](O)[C@@H]2NC)[C@@H](N/C(N)=N\[H])[C@@H]1O [Streptomycin] | 25 mm | 24 mm | 25 mm | – |
| O=C(O)c1cn(C2CC2)c2cc(N3CCNCC3)c(F)cc2c1=O [Ciprofloxacin] | – | 34 mm | 38 mm | – |
| CN(C)[C@@H]1C(O)=C(C(N)=O)C(=O)[C@@]2(O)C(O)=C3C(=O)c4c(O)cccc4[C@@](C)(O)[C@H]3C[C@@H]12 [Tetracycline] | 25 mm | 20 mm | 30 mm | – |
| O=C(N[C@H](CO)[C@H](O)c1ccc([N+](=O)[O-])cc1)C(Cl)Cl [Chloramphenicol] | 26 mm | 24 mm | 29 mm | – |
| Penicillin | 26 mm | 20 mm | 21 mm | – |
| NC[C@H]1O[C@H](O[C@H]2[C@H](O)[C@@H](O[C@H]3O[C@H](CO)[C@@H](O)[C@H](N)[C@H]3O)[C@H](N)C[C@@H]2N)[C@H](O)[C@@H](O)[C@@H]1O [Kanamycin] | 30 mm | 27 mm | 27 mm | – |
| CO[C@H]1/C=C/O[C@@]2(C)Oc3c(C)c(O)c4c(O)c(c(/C=N/N5CCN(C)CC5)c(O)c4c3C2=O)NC(=O)/C(C)=C\C=C\[C@H](C)[C@H](O)[C@@H](C)[C@@H](O)[C@@H](C)[C@H](OC(C)=O)[C@@H]1C [Rifampicin] | 19 mm | 15 mm | 20 mm | – |
| CN[C@H](CC(C)C)C(=O)N[C@H]1C(=O)N[C@@H](CC(N)=O)C(=O)N[C@H]2C(=O)N[C@H]3C(=O)N[C@H](C(=O)N[C@H](C(=O)O)c4cc(O)cc(O)c4-c4cc3ccc4O)[C@H](O)c3ccc(c(Cl)c3)Oc3cc2cc(c3O[C@@H]2O[C@H](CO)[C@@H](O)[C@H](O)[C@H]2O[C@H]2C[C@](C)(N)[C@H](O)[C@H](C)O2)Oc2ccc(cc2Cl)[C@H]1O [Vancomycin] | 21 mm | 21 mm | 20 mm | – |
| CC1(C)S[C@@H]2[C@H](NC(=O)[C@H](N)c3ccccc3)C(=O)N2[C@H]1C(=O)O [Ampicillin] | 28 mm | 29 mm | 29 mm | – |
